Measurements: PMC6199309, “A therapeutic approach to pantothenate kinase associated neurodegeneration” (Nature Communications, 2018)

Columns and labels:
BMX = molecular target: T1, BMX (Homo sapiens, UniProt P51813); test: KINOMEscan; type: binding; conditions: read-out: %Ctrl @ 10000nM
T1 construct: purchased DiscoverX KINOMEscan

CAMK1G = molecular target: T2, CAMK1G (Homo sapiens, UniProt Q96NX5); test: KINOMEscan; type: binding; conditions: read-out: %Ctrl @ 10000nM
T2 construct: purchased DiscoverX KINOMEscan
T2 sequence (Q96NX5 whole entry): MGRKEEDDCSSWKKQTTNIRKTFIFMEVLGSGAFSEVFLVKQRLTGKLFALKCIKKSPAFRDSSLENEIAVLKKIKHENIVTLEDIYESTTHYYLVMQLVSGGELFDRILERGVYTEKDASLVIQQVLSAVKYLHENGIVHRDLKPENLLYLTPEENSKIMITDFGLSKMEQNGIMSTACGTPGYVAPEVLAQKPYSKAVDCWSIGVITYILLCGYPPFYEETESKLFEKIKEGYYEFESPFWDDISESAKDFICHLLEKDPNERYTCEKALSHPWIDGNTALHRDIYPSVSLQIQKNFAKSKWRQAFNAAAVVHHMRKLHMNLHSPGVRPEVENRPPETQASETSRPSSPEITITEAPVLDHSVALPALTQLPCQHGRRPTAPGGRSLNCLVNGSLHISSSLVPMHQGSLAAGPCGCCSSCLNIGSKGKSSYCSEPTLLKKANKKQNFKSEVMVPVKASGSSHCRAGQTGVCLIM

CAMK2B = molecular target: T3, CAMK2B (Homo sapiens, UniProt Q13554); test: KINOMEscan; type: binding; conditions: read-out: %Ctrl @ 10000nM
T3 construct: purchased DiscoverX KINOMEscan

CAMK2G = molecular target: T4, CAMK2G (Homo sapiens, UniProt Q13555); test: KINOMEscan; type: binding; conditions: read-out: %Ctrl @ 10000nM
T4 construct: purchased DiscoverX KINOMEscan

CDC2L5 = molecular target: T5, CDC2L5 (Homo sapiens, UniProt Q14004); test: KINOMEscan; type: binding; conditions: read-out: %Ctrl @ 10000nM
T5 construct: purchased DiscoverX KINOMEscan

CDK7 = molecular target: T6, CDK7 (Homo sapiens, UniProt P50613); test: KINOMEscan; type: binding; conditions: read-out: %Ctrl @ 10000nM
T6 construct: purchased DiscoverX KINOMEscan

CDKL1 = molecular target: T7, CDKL1 (Homo sapiens, UniProt Q00532); test: KINOMEscan; type: binding; conditions: read-out: %Ctrl @ 10000nM
T7 construct: purchased DiscoverX KINOMEscan

CSK = molecular target: T8, CSK (Homo sapiens, UniProt P41240); test: KINOMEscan; type: binding; conditions: read-out: %Ctrl @ 10000nM
T8 construct: purchased DiscoverX KINOMEscan

DDR2 = molecular target: T9, DDR2 (Homo sapiens, UniProt Q16832); test: KINOMEscan; type: binding; conditions: read-out: %Ctrl @ 10000nM
T9 construct: purchased DiscoverX KINOMEscan

EGFR(T790M) = molecular target: T10, EGFR(T790M) (Homo sapiens, UniProt P00533, T790M); test: KINOMEscan; type: binding; conditions: read-out: %Ctrl @ 10000nM
T10 construct: purchased DiscoverX KINOMEscan

EIF2AK1 = molecular target: T11, EIF2AK1 (Homo sapiens, UniProt Q9BQI3); test: KINOMEscan; type: binding; conditions: read-out: %Ctrl @ 10000nM
T11 construct: purchased DiscoverX KINOMEscan

EPHA2 = molecular target: T12, EPHA2 (Homo sapiens, UniProt P29317); test: KINOMEscan; type: binding; conditions: read-out: %Ctrl @ 10000nM
T12 construct: purchased DiscoverX KINOMEscan
T12 sequence (P29317 24-976): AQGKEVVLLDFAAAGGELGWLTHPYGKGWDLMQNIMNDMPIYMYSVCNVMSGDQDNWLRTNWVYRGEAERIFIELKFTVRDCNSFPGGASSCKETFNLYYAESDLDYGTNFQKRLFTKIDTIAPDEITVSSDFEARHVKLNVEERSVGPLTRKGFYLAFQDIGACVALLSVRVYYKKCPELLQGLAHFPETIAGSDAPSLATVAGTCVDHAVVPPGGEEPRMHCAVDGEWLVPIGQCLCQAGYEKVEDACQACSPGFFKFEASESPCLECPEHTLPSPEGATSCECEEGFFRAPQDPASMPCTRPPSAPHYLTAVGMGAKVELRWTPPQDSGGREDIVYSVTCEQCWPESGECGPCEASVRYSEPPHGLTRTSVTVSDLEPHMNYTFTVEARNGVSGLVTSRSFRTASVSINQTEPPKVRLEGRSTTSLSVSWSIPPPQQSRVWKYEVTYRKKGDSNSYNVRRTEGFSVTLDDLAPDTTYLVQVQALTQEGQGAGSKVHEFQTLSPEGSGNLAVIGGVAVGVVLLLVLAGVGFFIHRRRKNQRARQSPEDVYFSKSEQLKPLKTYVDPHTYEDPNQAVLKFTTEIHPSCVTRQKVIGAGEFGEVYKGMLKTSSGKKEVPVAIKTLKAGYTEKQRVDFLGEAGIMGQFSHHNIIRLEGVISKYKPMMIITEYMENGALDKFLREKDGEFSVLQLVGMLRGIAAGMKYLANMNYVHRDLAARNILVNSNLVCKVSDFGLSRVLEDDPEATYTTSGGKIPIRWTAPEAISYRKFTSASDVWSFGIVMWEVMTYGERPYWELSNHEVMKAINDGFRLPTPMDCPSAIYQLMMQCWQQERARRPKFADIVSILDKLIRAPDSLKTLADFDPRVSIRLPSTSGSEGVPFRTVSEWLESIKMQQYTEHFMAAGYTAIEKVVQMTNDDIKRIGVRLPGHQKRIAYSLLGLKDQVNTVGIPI

EPHB4 = molecular target: T13, EPHB4 (Homo sapiens, UniProt P54760); test: KINOMEscan; type: binding; conditions: read-out: %Ctrl @ 10000nM
T13 construct: purchased DiscoverX KINOMEscan

EPHB6 = molecular target: T14, EPHB6 (Homo sapiens, UniProt O15197); test: KINOMEscan; type: binding; conditions: read-out: %Ctrl @ 10000nM
T14 construct: purchased DiscoverX KINOMEscan

ERK3 = molecular target: T15, ERK3 (Homo sapiens, UniProt Q16659); test: KINOMEscan; type: binding; conditions: read-out: %Ctrl @ 10000nM
T15 construct: purchased DiscoverX KINOMEscan
T15 sequence (Q16659 whole entry): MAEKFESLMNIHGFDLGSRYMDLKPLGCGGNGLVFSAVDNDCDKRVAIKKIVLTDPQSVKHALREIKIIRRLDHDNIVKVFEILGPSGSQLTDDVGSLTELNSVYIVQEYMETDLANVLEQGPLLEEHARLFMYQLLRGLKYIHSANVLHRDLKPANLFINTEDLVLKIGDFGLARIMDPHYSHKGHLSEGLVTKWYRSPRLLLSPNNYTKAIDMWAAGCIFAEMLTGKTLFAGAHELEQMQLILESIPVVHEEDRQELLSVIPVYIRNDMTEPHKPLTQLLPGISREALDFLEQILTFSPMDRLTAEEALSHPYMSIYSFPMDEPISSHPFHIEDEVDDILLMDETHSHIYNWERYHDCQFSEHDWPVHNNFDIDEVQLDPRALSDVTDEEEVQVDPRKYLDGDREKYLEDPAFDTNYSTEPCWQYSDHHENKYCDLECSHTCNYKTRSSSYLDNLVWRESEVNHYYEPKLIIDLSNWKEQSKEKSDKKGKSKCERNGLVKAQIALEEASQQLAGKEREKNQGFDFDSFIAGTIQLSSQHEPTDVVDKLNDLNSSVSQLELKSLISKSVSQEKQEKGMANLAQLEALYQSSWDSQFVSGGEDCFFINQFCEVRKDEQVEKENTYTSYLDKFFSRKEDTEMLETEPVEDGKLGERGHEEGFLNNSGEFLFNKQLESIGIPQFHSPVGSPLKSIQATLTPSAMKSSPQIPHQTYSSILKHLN

FER = molecular target: T16, FER (Homo sapiens, UniProt P16591); test: KINOMEscan; type: binding; conditions: read-out: %Ctrl @ 10000nM
T16 construct: purchased DiscoverX KINOMEscan

FGFR3(G697C) = molecular target: T17, FGFR3(G697C) (Homo sapiens, UniProt P22607, G697C); test: KINOMEscan; type: binding; conditions: read-out: %Ctrl @ 10000nM
T17 construct: purchased DiscoverX KINOMEscan

FYN = molecular target: T18, FYN (Homo sapiens, UniProt P06241); test: KINOMEscan; type: binding; conditions: read-out: %Ctrl @ 10000nM
T18 construct: purchased DiscoverX KINOMEscan

GCN2(Kin.Dom.2,S808G) = molecular target: T19, GCN2(Kin.Dom.2,S808G) (Homo sapiens, UniProt Q9P2K8, S808G); test: KINOMEscan; type: binding; conditions: read-out: %Ctrl @ 10000nM
T19 construct: GCN2(Kin.Dom.2,S808G); purchased DiscoverX KINOMEscan

GRK2 = molecular target: T20, GRK2 (Homo sapiens, UniProt P25098); test: KINOMEscan; type: binding; conditions: read-out: %Ctrl @ 10000nM
T20 construct: purchased DiscoverX KINOMEscan
T20 sequence (P25098 whole entry): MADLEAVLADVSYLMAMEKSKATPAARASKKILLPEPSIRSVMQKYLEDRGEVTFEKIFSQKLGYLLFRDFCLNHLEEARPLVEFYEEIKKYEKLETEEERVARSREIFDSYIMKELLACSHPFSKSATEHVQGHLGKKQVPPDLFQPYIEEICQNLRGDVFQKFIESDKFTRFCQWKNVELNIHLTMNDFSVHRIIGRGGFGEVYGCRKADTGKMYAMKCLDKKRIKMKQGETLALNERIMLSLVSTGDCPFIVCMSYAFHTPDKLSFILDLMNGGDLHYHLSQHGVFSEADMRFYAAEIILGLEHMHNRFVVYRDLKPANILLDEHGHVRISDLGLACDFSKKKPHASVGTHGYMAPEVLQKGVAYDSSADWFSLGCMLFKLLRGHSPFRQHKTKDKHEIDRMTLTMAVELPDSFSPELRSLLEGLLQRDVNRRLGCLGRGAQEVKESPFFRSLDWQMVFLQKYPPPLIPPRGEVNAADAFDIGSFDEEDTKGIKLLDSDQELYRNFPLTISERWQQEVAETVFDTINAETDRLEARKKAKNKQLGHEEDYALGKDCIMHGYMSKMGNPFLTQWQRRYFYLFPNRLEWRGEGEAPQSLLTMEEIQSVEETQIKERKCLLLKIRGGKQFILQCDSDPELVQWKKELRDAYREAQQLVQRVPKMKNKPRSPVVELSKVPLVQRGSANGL

HIPK3 = molecular target: T21, HIPK3 (Homo sapiens, UniProt Q9H422); test: KINOMEscan; type: binding; conditions: read-out: %Ctrl @ 10000nM
T21 construct: purchased DiscoverX KINOMEscan

LKB1 = molecular target: T22, LKB1 (Homo sapiens, UniProt Q15831); test: KINOMEscan; type: binding; conditions: read-out: %Ctrl @ 10000nM
T22 construct: purchased DiscoverX KINOMEscan

LTK = molecular target: T23, LTK (Homo sapiens, UniProt P29376); test: KINOMEscan; type: binding; conditions: read-out: %Ctrl @ 10000nM
T23 construct: purchased DiscoverX KINOMEscan

MAP3K3 = molecular target: T24, MAP3K3 (Homo sapiens, UniProt Q99759); test: KINOMEscan; type: binding; conditions: read-out: %Ctrl @ 10000nM
T24 construct: purchased DiscoverX KINOMEscan

MAP4K3 = molecular target: T25, MAP4K3 (Homo sapiens, UniProt Q8IVH8); test: KINOMEscan; type: binding; conditions: read-out: %Ctrl @ 10000nM
T25 construct: purchased DiscoverX KINOMEscan

MARK1 = molecular target: T26, MARK1 (Homo sapiens, UniProt Q9P0L2); test: KINOMEscan; type: binding; conditions: read-out: %Ctrl @ 10000nM
T26 construct: purchased DiscoverX KINOMEscan

MARK2 = molecular target: T27, MARK2 (Homo sapiens, UniProt Q7KZI7); test: KINOMEscan; type: binding; conditions: read-out: %Ctrl @ 10000nM
T27 construct: purchased DiscoverX KINOMEscan

MARK4 = molecular target: T28, MARK4 (Homo sapiens, UniProt Q96L34); test: KINOMEscan; type: binding; conditions: read-out: %Ctrl @ 10000nM
T28 construct: purchased DiscoverX KINOMEscan

MET(M1250T) = molecular target: T29, MET(M1250T) (Homo sapiens, UniProt P08581, M1250T); test: KINOMEscan; type: binding; conditions: read-out: %Ctrl @ 10000nM
T29 construct: purchased DiscoverX KINOMEscan

MST3 = molecular target: T30, MST3 (Homo sapiens, UniProt Q9Y6E0); test: KINOMEscan; type: binding; conditions: read-out: %Ctrl @ 10000nM
T30 construct: purchased DiscoverX KINOMEscan

NDR2 = molecular target: T31, NDR2 (Homo sapiens, UniProt Q9Y2H1); test: KINOMEscan; type: binding; conditions: read-out: %Ctrl @ 10000nM
T31 construct: purchased DiscoverX KINOMEscan

PIK3CA(H1047L) = molecular target: T32, PIK3CA(H1047L) (Homo sapiens, UniProt P42336, H1047L); test: KINOMEscan; type: binding; conditions: read-out: %Ctrl @ 10000nM
T32 construct: purchased DiscoverX KINOMEscan

PKMYT1 = molecular target: T33, PKMYT1 (Homo sapiens, UniProt Q99640); test: KINOMEscan; type: binding; conditions: read-out: %Ctrl @ 10000nM
T33 construct: purchased DiscoverX KINOMEscan
T33 sequence (Q99640 whole entry): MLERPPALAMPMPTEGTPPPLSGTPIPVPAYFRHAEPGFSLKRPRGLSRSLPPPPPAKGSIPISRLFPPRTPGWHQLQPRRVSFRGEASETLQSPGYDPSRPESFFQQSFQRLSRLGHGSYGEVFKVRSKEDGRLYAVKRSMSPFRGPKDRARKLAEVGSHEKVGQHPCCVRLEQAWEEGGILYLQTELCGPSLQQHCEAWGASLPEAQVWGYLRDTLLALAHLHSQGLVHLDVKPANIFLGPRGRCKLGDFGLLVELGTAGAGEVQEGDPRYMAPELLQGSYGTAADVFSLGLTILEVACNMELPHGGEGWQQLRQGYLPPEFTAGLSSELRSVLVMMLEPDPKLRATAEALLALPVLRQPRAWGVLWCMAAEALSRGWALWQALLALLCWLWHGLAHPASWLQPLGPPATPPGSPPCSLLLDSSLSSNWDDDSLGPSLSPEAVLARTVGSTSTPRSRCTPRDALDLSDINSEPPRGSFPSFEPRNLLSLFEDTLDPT

RAF1 = molecular target: T34, RAF1 (Homo sapiens, UniProt P04049); test: KINOMEscan; type: binding; conditions: read-out: %Ctrl @ 10000nM
T34 construct: purchased DiscoverX KINOMEscan

RET(V804M) = molecular target: T35, RET(V804M) (Homo sapiens, UniProt P07949, V804M); test: KINOMEscan; type: binding; conditions: read-out: %Ctrl @ 10000nM
T35 construct: purchased DiscoverX KINOMEscan
T35 sequence (P07949 29-1114 V804M): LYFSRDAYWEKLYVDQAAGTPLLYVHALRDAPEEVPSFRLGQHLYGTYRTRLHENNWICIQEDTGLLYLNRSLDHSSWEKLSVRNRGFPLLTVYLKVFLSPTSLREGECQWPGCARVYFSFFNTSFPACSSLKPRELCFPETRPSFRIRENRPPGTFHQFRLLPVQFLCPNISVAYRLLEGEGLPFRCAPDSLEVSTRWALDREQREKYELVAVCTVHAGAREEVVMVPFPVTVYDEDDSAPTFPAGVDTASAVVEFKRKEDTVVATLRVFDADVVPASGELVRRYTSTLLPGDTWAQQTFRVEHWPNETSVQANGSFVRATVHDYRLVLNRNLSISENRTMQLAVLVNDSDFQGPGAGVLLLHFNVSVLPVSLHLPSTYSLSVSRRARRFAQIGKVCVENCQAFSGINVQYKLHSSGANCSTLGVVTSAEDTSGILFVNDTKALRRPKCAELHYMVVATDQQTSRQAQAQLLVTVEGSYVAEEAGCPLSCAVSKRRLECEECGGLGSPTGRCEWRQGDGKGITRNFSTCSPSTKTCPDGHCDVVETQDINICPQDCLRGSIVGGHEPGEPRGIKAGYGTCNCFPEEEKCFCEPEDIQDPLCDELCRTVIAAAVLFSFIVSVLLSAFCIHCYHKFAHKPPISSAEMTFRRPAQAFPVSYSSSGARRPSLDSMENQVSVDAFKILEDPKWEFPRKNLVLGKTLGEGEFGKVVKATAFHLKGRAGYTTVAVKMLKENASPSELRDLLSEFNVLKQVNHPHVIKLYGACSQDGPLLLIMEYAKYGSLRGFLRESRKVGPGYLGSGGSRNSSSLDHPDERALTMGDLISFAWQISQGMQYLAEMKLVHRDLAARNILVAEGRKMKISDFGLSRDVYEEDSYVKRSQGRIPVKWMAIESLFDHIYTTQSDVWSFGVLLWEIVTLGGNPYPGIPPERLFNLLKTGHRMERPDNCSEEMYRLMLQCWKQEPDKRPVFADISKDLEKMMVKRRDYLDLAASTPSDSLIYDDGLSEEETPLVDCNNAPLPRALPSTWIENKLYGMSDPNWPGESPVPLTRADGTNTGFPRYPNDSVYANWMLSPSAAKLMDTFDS

RIPK5 = molecular target: T36, RIPK5 (Homo sapiens, UniProt Q6XUX3); test: KINOMEscan; type: binding; conditions: read-out: %Ctrl @ 10000nM
T36 construct: purchased DiscoverX KINOMEscan

SGK = molecular target: T37, SGK (Homo sapiens, UniProt O00141); test: KINOMEscan; type: binding; conditions: read-out: %Ctrl @ 10000nM
T37 construct: purchased DiscoverX KINOMEscan

STK16 = molecular target: T38, STK16 (Homo sapiens, UniProt O75716); test: KINOMEscan; type: binding; conditions: read-out: %Ctrl @ 10000nM
T38 construct: purchased DiscoverX KINOMEscan

TAOK3 = molecular target: T39, TAOK3 (Homo sapiens, UniProt Q9H2K8); test: KINOMEscan; type: binding; conditions: read-out: %Ctrl @ 10000nM
T39 construct: purchased DiscoverX KINOMEscan

VRK2 = molecular target: T40, VRK2 (Homo sapiens, UniProt Q86Y07); test: KINOMEscan; type: binding; conditions: read-out: %Ctrl @ 10000nM
T40 construct: DNA label for qPCR (T7 phage fusion or DNA tag); purchased DiscoverX scanMAX; host or cells: E. coli BL21-derived (T7 phage) or HEK-293

WEE2 = molecular target: T41, WEE2 (Homo sapiens, UniProt P0C1S8); test: KINOMEscan; type: binding; conditions: read-out: %Ctrl @ 10000nM
T41 construct: DNA label for qPCR (T7 phage fusion or DNA tag); purchased DiscoverX scanMAX; host or cells: E. coli BL21-derived (T7 phage) or HEK-293
T41 sequence (P0C1S8 whole entry, the tested form may be a part): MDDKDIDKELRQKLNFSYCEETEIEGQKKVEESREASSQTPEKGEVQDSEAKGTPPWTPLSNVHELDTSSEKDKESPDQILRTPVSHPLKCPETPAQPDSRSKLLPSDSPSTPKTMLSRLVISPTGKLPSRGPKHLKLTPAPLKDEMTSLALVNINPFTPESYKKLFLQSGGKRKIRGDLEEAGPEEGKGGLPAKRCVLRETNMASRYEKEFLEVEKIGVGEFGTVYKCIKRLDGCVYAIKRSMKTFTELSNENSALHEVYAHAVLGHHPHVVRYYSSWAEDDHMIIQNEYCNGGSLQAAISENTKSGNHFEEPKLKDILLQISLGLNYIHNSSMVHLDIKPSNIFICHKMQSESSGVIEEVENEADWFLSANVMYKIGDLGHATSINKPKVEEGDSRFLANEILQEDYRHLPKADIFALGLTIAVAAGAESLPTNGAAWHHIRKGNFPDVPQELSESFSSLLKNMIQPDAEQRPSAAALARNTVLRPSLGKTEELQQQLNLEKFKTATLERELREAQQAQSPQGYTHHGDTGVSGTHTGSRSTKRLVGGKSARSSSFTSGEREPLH

Plasma stability = type: in vitro ADME; conditions: human, read-out: Plasma Stability T1/2

CC(C)c1ccc(CC(=O)N2CCN(c3ccc(C#N)nn3)CC2)cc1 [PZ-2891, 6-(4-(2-(4-isopropylphenyl)acetyl)piperazin-1-yl)pyridazine-3-carbonitrile]
remaining binding at 10 µM (BMX): 100%
remaining binding at 10 µM (CAMK1G): 83%
remaining binding at 10 µM (CAMK2B): 88%
remaining binding at 10 µM (CAMK2G): 86%
remaining binding at 10 µM (CDC2L5): 81%
remaining binding at 10 µM (CDK7): 79%
remaining binding at 10 µM (CDKL1): 74%
remaining binding at 10 µM (CSK): 97%
remaining binding at 10 µM (DDR2): 85%
remaining binding at 10 µM (EGFR(T790M)): 78%
remaining binding at 10 µM (EIF2AK1): 95%
remaining binding at 10 µM (EPHA2): 100%
remaining binding at 10 µM (EPHB4): 97%
remaining binding at 10 µM (EPHB6): 68%
remaining binding at 10 µM (ERK3): 97%
remaining binding at 10 µM (FER): 88%
remaining binding at 10 µM (FGFR3(G697C)): 99%
remaining binding at 10 µM (FYN): 87%
remaining binding at 10 µM (GCN2(Kin.Dom.2,S808G)): 87%
remaining binding at 10 µM (GRK2): 56%
remaining binding at 10 µM (HIPK3): 81%
remaining binding at 10 µM (LKB1): 93%
remaining binding at 10 µM (LTK): 75%
remaining binding at 10 µM (MAP3K3): 65%
remaining binding at 10 µM (MAP4K3): 94%
remaining binding at 10 µM (MARK1): 77%
remaining binding at 10 µM (MARK2): 70%
remaining binding at 10 µM (MARK4): 81%
remaining binding at 10 µM (MET(M1250T)): 98%
remaining binding at 10 µM (MST3): 73%
remaining binding at 10 µM (NDR2): 94%
remaining binding at 10 µM (PIK3CA(H1047L)): 69%
remaining binding at 10 µM (PKMYT1): 100%
remaining binding at 10 µM (RAF1): 85%
remaining binding at 10 µM (RET(V804M)): 95%
remaining binding at 10 µM (RIPK5): 77%
remaining binding at 10 µM (SGK): 61%
remaining binding at 10 µM (STK16): 98%
remaining binding at 10 µM (TAOK3): 95%
remaining binding at 10 µM (VRK2): 70%
remaining binding at 10 µM (WEE2): 99%
half-life (Plasma stability): > 50 h
